Laboratory results published in the supplement of paper PMC6045584.
± gives the standard deviation of the averaged measurements.

Assays:
[1] = compound: C[C@@H](Oc1cc(-c2cnn(C3CCNCC3)c2)cnc1N)c1c(Cl)ccc(F)c1Cl; test: surviving fraction relative to DMSO-only wells; higher = less growth inhibition; details: exposure time: 5 days
Procedure, shortened: (§1)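 Tumour cell lines were seeded in log phase at 250–500 cells per well into 384-well plates. Starting 24 hours later, inhibitors were present continuously for five days at 0.5, 1, 5, 10, 50, 100, 500 and 1000 nM. Surviving fraction, from CellTiter-Glo luminescence, is normalised to the median of DMSO-only wells. Three screens per line were required, with replicate Pearson r >0.7 and median Z' >0.3 for a line to be kept.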

SORAFENIB = compound: CNC(=O)c1cc(Oc2ccc(NC(=O)Nc3ccc(Cl)c(C(F)(F)F)c3)cc2)ccn1 [SORAFENIB]; test: as above; details: exposure time: 5 days
Procedure, shortened: as §1

SKBR3 BREAST
surviving fraction ([1]; 0.5 nM): 0.731 ± 0.039
surviving fraction ([1]; 1 nM): 0.814 ± 0.075
surviving fraction ([1]; 10 nM): 0.859 ± 0.071
surviving fraction ([1]; 50 nM): 0.997 ± 0.12
surviving fraction ([1]; 500 nM): 0.759 ± 0.035
surviving fraction (SORAFENIB; 0.5 nM): 1.12 ± 0.15
surviving fraction (SORAFENIB; 1 nM): 1.07 ± 0.22
surviving fraction (SORAFENIB; 5 nM): 0.978 ± 0.087
surviving fraction (SORAFENIB; 10 nM): 0.951 ± 0.16
surviving fraction (SORAFENIB; 50 nM): 0.96 ± 0.16
surviving fraction (SORAFENIB; 100 nM): 0.95 ± 0.1
surviving fraction (SORAFENIB; 500 nM): 1.08 ± 0.23
surviving fraction (SORAFENIB; 1000 nM): 1.1 ± 0.053

SNU475 LIVER
surviving fraction ([1]; 0.5 nM): 0.8177 ± 0.0046
surviving fraction ([1]; 5 nM): 0.829 ± 0.049
surviving fraction ([1]; 50 nM): 0.927 ± 0.039
surviving fraction ([1]; 500 nM): 0.853 ± 0.031
surviving fraction ([1]; 1000 nM): 0.662 ± 0.04
surviving fraction (SORAFENIB; 0.5 nM): 1.08 ± 0.036
surviving fraction (SORAFENIB; 5 nM): 1.04 ± 0.03
surviving fraction (SORAFENIB; 10 nM): 1.05 ± 0.032
surviving fraction (SORAFENIB; 500 nM): 1.17 ± 0.031
surviving fraction (SORAFENIB; 1000 nM): 1.07 ± 0.042

SUM44 BREAST
surviving fraction ([1]; 0.5 nM): 0.865 ± 0.038
surviving fraction ([1]; 1 nM): 0.874 ± 0.056
surviving fraction ([1]; 5 nM): 0.983 ± 0.021
surviving fraction ([1]; 10 nM): 0.935 ± 0.029
surviving fraction ([1]; 100 nM): 1.04 ± 0.026
surviving fraction ([1]; 500 nM): 0.892 ± 0.077
surviving fraction ([1]; 1000 nM): 0.798 ± 0.046
surviving fraction (SORAFENIB; 0.5 nM): 1.03 ± 0.035
surviving fraction (SORAFENIB; 1 nM): 0.99 ± 0.041
surviving fraction (SORAFENIB; 5 nM): 1.03 ± 0.051
surviving fraction (SORAFENIB; 10 nM): 1.04 ± 0.053
surviving fraction (SORAFENIB; 50 nM): 1.12 ± 0.035
surviving fraction (SORAFENIB; 100 nM): 1.11 ± 0.044
surviving fraction (SORAFENIB; 1000 nM): 0.974 ± 0.026

SUM149 BREAST
surviving fraction ([1]; 0.5 nM): 0.897 ± 0.12
surviving fraction ([1]; 1 nM): 0.877 ± 0.094
surviving fraction ([1]; 10 nM): 0.86 ± 0.045
surviving fraction ([1]; 100 nM): 0.893 ± 0.1
surviving fraction ([1]; 500 nM): 0.73 ± 0.064
surviving fraction ([1]; 1000 nM): 0.415 ± 0.029
surviving fraction (SORAFENIB; 0.5 nM): 1.18 ± 0.028
surviving fraction (SORAFENIB; 1 nM): 1.09 ± 0.048
surviving fraction (SORAFENIB; 100 nM): 1.17 ± 0.051
surviving fraction (SORAFENIB; 1000 nM): 1.278 ± 0.0084

SUM149.B1*.S BREAST
surviving fraction ([1]; 0.5 nM): 0.902 ± 0.028
surviving fraction ([1]; 1 nM): 0.898 ± 0.036
surviving fraction ([1]; 5 nM): 0.921 ± 0.037
surviving fraction ([1]; 10 nM): 0.904 ± 0.04
surviving fraction ([1]; 50 nM): 0.96 ± 0.032
surviving fraction ([1]; 100 nM): 0.929 ± 0.037
surviving fraction ([1]; 500 nM): 0.855 ± 0.056
surviving fraction ([1]; 1000 nM): 0.729 ± 0.051
surviving fraction (SORAFENIB; 0.5 nM): 1.1 ± 0.025
surviving fraction (SORAFENIB; 1 nM): 1.051 ± 0.004
surviving fraction (SORAFENIB; 5 nM): 1.08 ± 0.05
surviving fraction (SORAFENIB; 10 nM): 1.05 ± 0.033
surviving fraction (SORAFENIB; 100 nM): 1.202 ± 0.0063
surviving fraction (SORAFENIB; 500 nM): 0.807 ± 0.024
surviving fraction (SORAFENIB; 1000 nM): 0.609 ± 0.04

SUM159 BREAST
surviving fraction ([1]; 0.5 nM): 1.07 ± 0.2
surviving fraction ([1]; 1 nM): 1.07 ± 0.17
surviving fraction ([1]; 5 nM): 1.07 ± 0.18
surviving fraction ([1]; 10 nM): 1.05 ± 0.16
surviving fraction ([1]; 50 nM): 1.07 ± 0.19
surviving fraction ([1]; 100 nM): 0.984 ± 0.06
surviving fraction ([1]; 500 nM): 1.04 ± 0.19
surviving fraction ([1]; 1000 nM): 0.94 ± 0.086
surviving fraction (SORAFENIB; 0.5 nM): 0.909 ± 0.23
surviving fraction (SORAFENIB; 1 nM): 0.956 ± 0.18
surviving fraction (SORAFENIB; 10 nM): 0.936 ± 0.18
surviving fraction (SORAFENIB; 50 nM): 0.997 ± 0.15
surviving fraction (SORAFENIB; 500 nM): 0.909 ± 0.28
surviving fraction (SORAFENIB; 1000 nM): 0.071 ± 0.043

SYO1 SYNOVIAL
surviving fraction ([1]; 0.5 nM): 0.814 ± 0.068
surviving fraction ([1]; 1 nM): 0.821 ± 0.064
surviving fraction ([1]; 5 nM): 0.822 ± 0.031
surviving fraction ([1]; 10 nM): 0.781 ± 0.027
surviving fraction ([1]; 50 nM): 0.904 ± 0.01
surviving fraction ([1]; 100 nM): 0.829 ± 0.036
surviving fraction ([1]; 500 nM): 0.26 ± 0.063
surviving fraction ([1]; 1000 nM): 0.123 ± 0.0083
surviving fraction (SORAFENIB; 0.5 nM): 0.9613 ± 0.0017
surviving fraction (SORAFENIB; 1 nM): 1.02 ± 0.023
surviving fraction (SORAFENIB; 5 nM): 1.02 ± 0.045
surviving fraction (SORAFENIB; 10 nM): 0.981 ± 0.017
surviving fraction (SORAFENIB; 50 nM): 0.968 ± 0.025
surviving fraction (SORAFENIB; 100 nM): 0.912 ± 0.033
surviving fraction (SORAFENIB; 1000 nM): 0.679 ± 0.022
